Paper PMC5515971, “Utility of spherical human liver microtissues for prediction of clinical drug-induced liver injury” (Archives of Toxicology, 2017)
Like-named read-outs stand apart in the source and are kept apart here.

Columns and labels:
[1] = test system: primary human hepatocytes (PHH); assay: Cytotoxicity (cellular ATP, CellTiter-Glo) in 2D plated primary human hepatocytes, 48 h treatment; type: cell-based; settings: for IC50: read-out: Geomean IC50;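 on all read-outs here: 384-well plates, luminescence read-out, normalized to vehicle wells with 1% DMSO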
Method: Cryopreserved PHH (lot IZT) were thawed in InVitroGro HT™ thawing media at 37 °C, pelleted, and resuspended. Viable hepatocytes were counted by Trypan blue exclusion and plated in black-walled, BioCoat™ collagen 384-well plates at 13,000 cells/well in InVitroGro CP™ plating media supplemented with 1% Torpedo™ Antibiotic Mix and 5% fetal bovine serum and incubated overnight for 18 h. Cells were then treated with compounds for 48 h diluted in InVitroGro HI™ incubation media containing 1% Torpedo Antibiotic Mix, 10% fetal bovine serum, and 1% DMSO. […] Luminescence was determined on an EnVision™ Muliplate Reader (PerkinElmer, Waltham, MA, USA), and data were normalized to vehicle (1% DMSO) control wells.

[2] = test system: 3D human liver microtissues (hLiMT); assay: Cytotoxicity (cellular ATP) in 3D human liver microtissues, 5-6 days treatment; type: cell-based; settings: read-out: IC50 SHORT;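 further: Hanging-drop spheroids, seven-point dilution series, re-dosed on day 3, CellTiter-Glo 2.0 luminescence, normalized to 0.5 or 1% DMSO vehicle controls on the same plate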
[3] = cited from earlier work
[4] = test system: 3D human liver microtissues (hLiMT); assay: Cytotoxicity (cellular ATP, CellTiter-Glo 2.0) in 3D human liver microtissues, 14 day repeat-dose treatment
[5] = cited from earlier work; for DILI category: clinical, from literature and product labels
[6] = ref Chen et al 2016 / Chen et al 2011; cited from earlier work
[7] = Hepatocyte, 2D primary human hepatocytes (lot IZT), 48 h treatment, total cellular ATP content
[8] = Homo sapiens, hLiMT, 5/6 days, ATP content
[9] = human Cmax total, used for IC50/Cmax
[10] = human total plasma Cmax, ref literature values
[11] = Homo sapiens, Hepatocyte, 336 h, read-out: Geomean IC50 [µM]
[12] = Homo sapiens, 336 h, read-out: IC50 LONG
[13] = Table 1, ref Garside et al. (2014)
[14] = clinical DILI severity category, 1-5
[15] = table S-4, ref Garside et al. 2014

Row | Compound | IC50 [1, 7] [µM] | IC50 [2, 8] [µM] | Cmax [3, 9] [µM] | Cmax [3, 10] [µM] | IC50 [4, 11] [µM] | IC50 [4, 12] [µM] | DILI severity category [5, 13] | DILI severity category [5, 14] | DILI category ([5]; ref Garside et al. 2014) | DILI severity category [5, 15] | FDA DILI Classification DILI severity score [6] | LTKB DILI classification [6] | also measured
1 | CN1C[C@H](CNC(=O)OCc2ccccc2)C[C@@H]2c3cccc4c3c(cn4C)C[C@H]21 [Metergoline] | 20.1 | 12.3 | 0.07 | 0.07 | 7.8 | – | – | – | – | – | – | – | classification at 100 μM IC50 threshold ([1]; PHH 48 h): false positives; classification at 100 μM IC50 threshold ([4]; hLiMT 14 days): false positives
2 | CCN(CC)CCCC(C)Nc1c2ccc(Cl)cc2nc2ccc(OC)cc12 (centres unmarked) [Quinacrine] | 7.3 | 3.7 | – | 258 | > 2 | 2 | – | – | – | – | – | – | –
3 | COc1ccc2c(c1)c(CC(=O)O)c(C)n2C(=O)c1ccc(Cl)cc1 [Indomethacin] | > 100 | 100 | 8.4 | 8.38 | > 100 | – | – | – | – | – | – | – | –
4 | Fc1ccc([C@@H]2CCNC[C@H]2COc2ccc3c(c2)OCO3)cc1 [Paroxetine] | 15.3 | 21.3 | 0.2 | 0.2 | 12 | – | 2: High clinical DILI concern (N = 23) | 2. High Clinical DILI Concern | 2. High Clinical DILI Concern | 2 | 8 | less DILI concern | –
5 | C[C@]12CC[C@@H]3c4ccc(O)cc4CC[C@H]3[C@@H]1CC[C@@H]2O [beta-Estradiol] | – | – | 0.0006 | 0.0006 | – | – | – | – | – | – | – | – | IC50 ([1]; 2D primary human hepatocytes (lot IZT), 48 h treatment, total cellular ATP content): > 100 µM; IC50 ([2]; hLiMT, 5/6 days, ATP content): 42 µM; IC50 ([4]; read-out: Geomean IC50, decrease in total cellular ATP content, hLiMT treated for 14 days, hepatocyte lot IZT (except Dexamethasone) co-cultured with NPCs, n=1 or geometric mean): 13.5 µM
6 | CC1=C(/C=C/C(C)=C/C=C/C(C)=C/C(=O)O)C(C)(C)CCC1 [Tretinoin] | > 100 | 29.2 | 1.33 | 1.33 | > 17 | 17 | 3: Low clinical DILI concern (N = 23) | 3. Low Clinical DILI Concern | 3. Low Clinical DILI Concern | 3 | 3 | Ambiguous DILI concern | –
7 | CC(C)C(=O)Nc1ccc([N+](=O)[O-])c(C(F)(F)F)c1 [Flutamide] | 73 | 12.5 | 5.4 | 5.43 | 25.7 | – | 1: Severe clinical DILI (N = 23) | 1. Severe Clinical DILI | 1. Severe Clinical DILI | 1 | 8 | most DILI concern | change of IC50 with prolonged exposure ([4]; hLiMT 14 days versus 5-6 days): higher IC50 value
8 | O=C1[C@H](CC[C@H](O)c2ccc(F)cc2)[C@@H](c2ccc(O)cc2)N1c1ccc(F)cc1 [Ezetimibe] | – | 45.6 | – | – | – | 45.5 | – | – | – | 3 | – | – | –
9 | COc1ccc2cc([C@H](C)C(=O)O)ccc2c1 [Naproxen] | – | 100 | – | – | – | – | – | – | – | – | – | – | –
10 | [H]/N=C(/N)N/C(=N/[H])NCCc1ccccc1 [Phenformin] | 5.1 | 7.7 | 0.63 | 0.63 | < 12.5 | 12.5 | 3: Low clinical DILI concern (N = 23) | 3. Low Clinical DILI Concern | 3. Low Clinical DILI Concern | 3 | – | – | –
11 | CN[C@@H]1[C@H](O)[C@H](NC)[C@H]2O[C@@]3(O)C(=O)C[C@@H](C)O[C@H]3O[C@@H]2[C@H]1O [Spectinomycin] | > 100 | 100 | 323 | 323 | > 100 | – | 3: Low clinical DILI concern (N = 23) | 3. Low Clinical DILI Concern | 3. Low Clinical DILI Concern | 3 | 3 | Ambiguous DILI concern | –
12 | CCOC(=O)CN[C@@H](C(=O)N1CC[C@H]1C(=O)NCc1ccc(/C(N)=N\O)cc1)C1CCCCC1 [Ximelagatran] | > 200 | 200 | 0.45 | 0.45 | ~151 | 151 | – | – | – | – | – | – | IC50 ([4]; Homo sapiens, 336 h, read-out: IC50 (ATP-assay)): 121 µM
13 | CN(C)CCC(c1ccc(Cl)cc1)c1ccccn1 (centres unmarked) [Chlorpheniramine] | – | 100 | 0.044 | 0.0437 | – | – | 3: Low clinical DILI concern (N = 23) | 3. Low Clinical DILI Concern | 3. Low Clinical DILI Concern | 3 | 0 | no DILI concern | –
14 | COc1ccccc1Oc1c(NS(=O)(=O)c2ccc(C(C)(C)C)cc2)nc(-c2ncccn2)nc1OCCO [Bosentan] | > 200 | 100 | – | – | ~93 | 93 | 1: Severe clinical DILI (N = 23) | 1. Severe Clinical DILI | 1. Severe Clinical DILI | 1 | 7 | most DILI concern | cytotoxicity IC50 detected ([1]; PHH 48 h, in words): no IC50 values were detected
15 | Cn1c(=O)c2[nH]cnc2n(C)c1=O [Theophylline] | – | – | – | – | > 100 | – | – | – | – | – | – | – | IC50 ([1]; Homo sapiens, Hepatocyte, 48 h): > 100 µM; IC50 ([2]; Homo sapiens): 100 µM; Cmax ([3]; human, in vivo): 83.8 µM
16 | Cc1cnc(NC(=O)C2=C(O)c3ccccc3S(=O)(=O)N2C)s1 [Meloxicam] | > 100 | 100 | 5.21 | 5.21 | > 100 | – | – | – | – | – | – | – | –
17 | CS(=O)(=O)CCNCc1ccc(-c2ccc3ncnc(Nc4ccc(OCc5cccc(F)c5)c(Cl)c4)c3c2)o1 [Lapatinib] | 33.3 | – | 19 | 19 | ~27.3 | – | 1: Severe clinical DILI (N = 23) | 1. Severe Clinical DILI | 1. Severe Clinical DILI | – | 8 | most DILI concern | –
18 | CC(C)c1c(C(=O)Nc2ccccc2)c(-c2ccccc2)c(-c2ccc(F)cc2)n1CC[C@@H](O)C[C@@H](O)CC(=O)O [Atorvastatin] | – | 70.7 | – | – | 6 | – | – | – | – | – | – | – | –
19 | CC1(C)S[C@@H]2[C@H](NC(=O)COc3ccccc3)C(=O)N2[C@H]1C(=O)O [Penicillin V] | > 100 | 100 | 14.3 | 14.3 | > 100 | – | – | – | – | – | – | – | –
20 | O=C1CN(/N=C/c2ccc([N+](=O)[O-])o2)C(=O)N1 [Nitrofurantoin] | – | 100 | 21 | 21 | – | – | 2: High clinical DILI concern (N = 23) | 2. High Clinical DILI Concern | 2. High Clinical DILI Concern | 2 | 8 | most DILI concern | –
